The results in this text go back to patent EP0191520A1, “(1-phenylmethyl-5-hydroxy-1H-indazol-3-yl)-oxyacetic acid and salts thereof for use as a medicament, and pharmaceutical compositions containing them” (AZIENDE CHIMICHE RIUNITE ANGELINI FRANCESCO A.C.R.A.F. …, priority 1985, dated 1986).

As usually defined, the inhibition is how much of the control response was suppressed.

In one assay the target is T1, albumin of beef serum (Bos taurus, UniProt P02769).
T1 construct: albumin of beef serum; from tissue; host or cells: beef serum
In words: protective effect on protein denaturation from UV rays (method of Silvestrini et al.). The assay is classed as biochemical. The note with it: for inhibition at 50 µM: molar conc. .00005; for inhibition at 200 µM: molar conc. .0002. The procedure:
The Compounds of formulas I and II were tested under experimental conditions designed to show the protective effect on protein denaturation from UV rays according to the method of Silvestrini et al. (Int. J. Tiss. Reac. 5, 217-225, 1983) which comprises the measurement of the protective action of the compound under examination on the denaturation of the albumin of beef serum submitted to UV rays for 30 minutes.

In assay [1] the test system is bilateral senile cataract. In words: preliminary tests on man: cataract therapy for three months, oral or topical. It is filed as in vivo. The following applies: 10 patients. The procedure: Preliminary tests on man confirmed the action of Compound II in cataract therapy.
Two groups of 10 patients afflicted by bilateral senile cataract with cortical or subcapsular or cortinuclear localization, in the initial evolutive stage, without fundus alterations and with a distant visus from 5 to 9 tenths (after correction of any refraction error) were treated for three months with Compound II orally (100 mg tablet; 1 tablet, three times a day) and topically (0.1% collyrium; 1 drop in the conjunctival sac of each eye three times a day) respectively.
The effect of the treatment was evaluated by monitoring the variations in the visus, in the refraction error, and in lenticular opacity (by biomicroscopy with a slit lamp and by ophthalmoscopy).

Setting [2] is: UV rays for 30 minutes, read-out: % INHIBITION MEAN.
Setting [3] is: single determinations, UV rays for 30 minutes, read-out: % INHIBITION
Setting [4] is: orally, 100 mg tablet three times a day.
The mark [5] stands for this setting: topically, 0.1% collyrium, 1 drop in each eye three times a day.

Like-named read-outs stand apart in the source and are kept apart here.

T1 sequence (P02769 25-607): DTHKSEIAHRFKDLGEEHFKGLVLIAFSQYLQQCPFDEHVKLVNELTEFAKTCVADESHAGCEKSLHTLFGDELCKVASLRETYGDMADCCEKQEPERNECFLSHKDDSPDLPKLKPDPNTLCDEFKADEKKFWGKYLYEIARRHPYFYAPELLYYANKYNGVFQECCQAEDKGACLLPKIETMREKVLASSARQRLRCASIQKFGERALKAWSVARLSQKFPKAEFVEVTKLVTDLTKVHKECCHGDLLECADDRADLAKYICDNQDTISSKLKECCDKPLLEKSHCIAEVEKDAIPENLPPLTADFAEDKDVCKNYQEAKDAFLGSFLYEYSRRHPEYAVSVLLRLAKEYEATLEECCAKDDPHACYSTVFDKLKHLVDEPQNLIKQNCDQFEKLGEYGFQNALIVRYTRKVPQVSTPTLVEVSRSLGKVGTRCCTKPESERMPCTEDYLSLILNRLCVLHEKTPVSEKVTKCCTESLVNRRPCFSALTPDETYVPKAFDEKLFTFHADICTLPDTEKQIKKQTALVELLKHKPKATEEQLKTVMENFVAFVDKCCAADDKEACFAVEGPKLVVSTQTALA

`O=C(O)COc1nn(Cc2ccccc2)c2ccccc12` [Compound I, bendazac lysinate, reference compound]: the inhibition at 250 µM at albumin of beef serum (molar conc. .00025, UV rays for 30 minutes) was determined as 12%. This molecule showed an inhibition at 500 µM against albumin of beef serum (molar conc. .0005, UV rays for 30 minutes) of 21%. The same molecule displayed an inhibition at 1000 µM on albumin of beef serum (molar conc. .001, UV rays for 30 minutes) of 42%. Further, at albumin of beef serum (molar conc. .002, UV rays for 30 minutes), the inhibition at 2000 µM was determined as 61%.

As to `O=C(O)COc1nn(Cc2ccccc2)c2ccc(O)cc12` [Compound II, (5-hydroxy-1-benzyl)-indazolyl-3-oxyacetic acid], at albumin of beef serum (setting [2]), the inhibition at 50 µM stood at 10% and the inhibition at 200 µM is 92%. In addition, on albumin of beef serum (setting [3]), the inhibition at 50 µM lay in the range of 8 to 13% and the inhibition at 200 µM was 85 to 100%. This molecule yielded an inhibition at 100 µM on albumin of beef serum (molar conc. .0001, UV rays for 30 minutes) of 77%. On albumin of beef serum (relative activity versus Compound I in this test), the “times as active as Compound I” value is “at least 10 times”. In addition, in assay [1] (setting [4]), the opacity decreased is on record as 6 eyes, the opacity increased came out at 1 eye, the opacity remained unchanged is 13 eyes and the “overall clinical judgement: patients improved” value was 7 patients. In assay [1] (setting [4]), the “overall clinical judgement: remained unchanged” value turned out to be 2 patients and the “overall clinical judgement: worsened slightly” value is on record as “one”. The “overall clinical judgement: patients improved greatly” value in assay [1] (orally, 100 mg tablet three times a day, part of the 7 improved) is recorded as 4 patients. The “mean visus value increased” value in assay [1] (orally, 100 mg tablet three times a day, t = 3.58, P < 0.01) is 16.79%. For the same molecule, in assay [1] (setting [5]), the opacity decreased is 7 eyes, the opacity increased was 2 eyes, the opacity remained unchanged was determined as 11 eyes and the “overall clinical judgement: patients improved” value came out at 4 patients. Moreover, in assay [1] (setting [5]), the “overall clinical judgement: remained unchanged” value is given as 5 patients and the “overall clinical judgement: worsened” value is on record as “one”. In assay [1] (topically, 0.1% collyrium, 1 drop in each eye three times a day, t = 2.54, P < 0.05), the “mean visus value increased” value came to 12.78%.
